This is an account of results in patent US20240216413A1, “THIONUCLEOSIDES AS ANTIVIRAL AGENTS” (priority 2021, published 2024).

Series [1] has as its system mitochondrial DNA (COXII gene). In words: Mitochondrial toxicity in HepG2 cells (MtDNA / rDNA). As to conditions: human, HepG2 cells.
The test system of series [2] is rDNA (rRNA gene, nuclear reference). Described as above. Particulars: human, HepG2 cells.
A further series concerns HepG2 cells. The description is as above. Particulars: Homo sapiens.
For series [3], the system named is SARS-CoV-2. The experiment in a line: Anti-SARS-CoV-2 activity (Vero). Type of series: cell-based. Particulars: Severe acute respiratory syndrome coronavirus 2, MOI 0.1, 48 hr.
The nature of series [4]: Cytotoxicity in PBM cells. Particulars: human. Format: cell-based. The procedure: (§1) The toxicity of the compounds was assessed in Vero, human PBM, CEM (human lymphoblastoid), MT-2, and HepG2 cells, as described previously (see Schinazi R. F., Sommadossi J.-P., Saalmann V., Cannon D. L., Xie M.-Y., Hart G. C., Smith G. A. & Hahn E. F. Antimicrob. Agents Chemother. 1990, 34, 1061-67). Cycloheximide was included as positive cytotoxic control, and untreated cells exposed to solvent were included as negative controls. The cytotoxicity IC50 or CC50 was obtained from the concentration-response curve using the median effective method described previously (see Chou T.-C. & Talalay P. Adv. Enzyme Regul. 1984, 22, 27-55; Belen'kii M. S. & Schinazi R. F. Antiviral Res. 1994, 25, 1-11).

A short description of series [5]: Cytotoxicity in CEM cells. Particulars: human, CEM lymphoblastoid cells. Format: cell-based. The procedure: as §1
Series [6] relates to SARS-CoV-2. The experiment in a line: Anti-SARS-CoV-2 activity, 3D primary culture (Organoids). Format: cell-based.
Series [7] is described as follows: in vitro. Particulars: human.
Series [8] deals with Omicron. In words: microbe, parasite or virus in culture. Particulars: for EC90: Severe acute respiratory syndrome coronavirus 2, Caco-2, read-out: Anti-Omicron Activity (Caco-2) EC90.
In the next series the test system is HCoV-OC43. In words: Anti-HCoV-OC43 activity. Format: cell-based.
Series [9] in a line: in vitro. As to conditions: human, Caco-2.
In series [10] the test system is Omicron. In words: Anti-Omicron activity (Calu-3). Type of series: cell-based, SARS-CoV-2.
In series [11] the test system is SARS-CoV-2. The experiment in a line: Anti-SARS-CoV-2 activity (Calu3). Type of series: cell-based.
The test system of series [12] is SARS-CoV-2. In words: Anti-SARS-CoV-2 activity (Caco2). As to conditions: Severe acute respiratory syndrome coronavirus 2, Caco-2, 72 h; for EC50: read-out: Anti-SARS-CoV-2 Activity (Caco2) EC50.
Series [13] concerns SARS-CoV-2. The experiment in a line: Anti-SARS-CoV-2 activity, 3D primary culture (HAE-ALI). Format: cell-based. Particulars: Severe acute respiratory syndrome coronavirus 2, air-liquid interface.
Series [14] can be described thus: Cytotoxicity in Vero cells. As to conditions: African green monkey, Vero cells (kidney).
Series [15] is described as follows: Cytotoxicity in Huh7 cells. Format: cell-based. As to conditions: human.
Where [16] appears, read: Severe acute respiratory syndrome coronavirus 2, Caco-2, read-out: Anti-Omicron Activity (Caco-2) EC50.
The mark [17] stands for this setting: Severe acute respiratory syndrome coronavirus 2, Calu-3, Calu3, MOI 1.0, 72 hr.
The mark [18] stands for this setting: Severe acute respiratory syndrome coronavirus 2, Omicron, Calu-3, read-out: Anti-Omicron Activity (Calu-3) EC50.
[19] abbreviates: Severe acute respiratory syndrome coronavirus 2, Omicron, Calu-3, read-out: Anti-Omicron Activity (Calu-3) EC90.

Like-named read-outs stand apart in the source and are kept apart here.

As usually defined, the inhibition is the share of the control response that was lost under treatment. What is called EC50 is the concentration needed to bring the measured effect to its halfway point. By EC90 is commonly meant the concentration at which the effect reaches the 90% level. Regarding `O=c1ccn([C@@H]2S[C@H](CO)[C@@H](O)[C@H]2O)c(=O)[nH]1` [Compound 8, 1-((2R,3R,4S,5R)-3,4-dihydroxy-5-(hydroxymethyl)tetrahydrothiophen-2-yl)pyrimidine-2,4(1H,3H)-dione], the CC50 at 7 days in series [1] and in series [2] was greater than 100 µM each time. The inhibition at 100 µM with HepG2 cells (HepG2, read-out: inhibition of MtDNA at 100 μM) was less than 1%; with HepG2 cells (HepG2, read-out: inhibition of rDNA at 100 μM), 36.3%. Moreover, the EC50 in the series with SARS-CoV-2 [3] was 0.4 µM; in the series on SARS-CoV-2 [6] (Severe acute respiratory syndrome coronavirus 2, 3D primary culture, organoids, read-out: Anti-SARS-CoV-2 Activity (Organoids) EC50) it was 0.7 µM; with Omicron [8] (setting [16]), 8.2 µM; in the series with HCoV-OC43 (Betacoronavirus 1, OC43, read-out: Anti-HCoV-OC43 Activity EC50), 2.2 to 2.5 µM; in the series with Omicron [10] (Severe acute respiratory syndrome coronavirus 2, Calu-3, read-out: Anti-Omicron Activity (Calu-3) EC50) it was 0.9 to 1.3 µM; with SARS-CoV-2 [12], 1.1 µM. In addition, in the series on SARS-CoV-2 [13], the midpoint of the response, the EC50, lay at 0.04 µM. Further, the EC90 in the series on SARS-CoV-2 [3] is 0.8 µM; in the series with Omicron [8] it was greater than 10 µM; in the series on HCoV-OC43 (Betacoronavirus 1, OC43, read-out: Anti-HCoV-OC43 Activity EC90) it was 6.1 to 7.3 µM; in the series on Omicron [10] (Severe acute respiratory syndrome coronavirus 2, Calu-3, read-out: Anti-Omicron Activity (Calu-3) EC90), 2.7 to 4.4 µM; in the series on SARS-CoV-2 [11] (setting [17]) it was 3.5 µM; in the series with SARS-CoV-2 [13], 0.1 µM. The CC50 in [4] is greater than 100 µM; in series [5] it was 20.5 µM; in the series “in vitro [7]”, greater than 100 µM; in “in vitro [9]”, greater than 100 µM; in series [14], 68.3 µM; in series [15], greater than 100 µM.

Take `CCC(CC)COC(=O)[C@H](C)N[P@](=O)(OC[C@H]1O[C@@](C#N)(c2ccc3c(N)ncnn23)[C@H](O)[C@@H]1O)Oc1ccccc1` [Remdesivir, reference compound]: the figures for the CC50 in series [4], in [5] and in [15] were 6.4 µM, 12 µM and 1.5 µM, respectively. Besides, the EC50 in the series on SARS-CoV-2 [6] (Severe acute respiratory syndrome coronavirus 2, read-out: Anti-SARS-CoV-2 Activity (Organoids) EC50) was 0.7 µM; in the series on Omicron [8] (setting [16]) it was 0.05 µM; in the series with HCoV-OC43 (Betacoronavirus 1, OC43; read-out: Anti-HCoV-OC43 Activity EC50), 0.007 to 0.03 µM; in the series with Omicron [10] (setting [18]) it was 0.2 to 0.3 µM; with SARS-CoV-2 [11] (Severe acute respiratory syndrome coronavirus 2, Calu-3, 72 h), 0.1 µM; in the series on SARS-CoV-2 [13] it was 0.6 µM. Further, the EC90 in the series on SARS-CoV-2 [6] (Severe acute respiratory syndrome coronavirus 2, 3D primary culture, organoids) is 1.5 µM; in the series on Omicron [8] it was 0.4 µM; in the series on HCoV-OC43 (Betacoronavirus 1, OC43; read-out: Anti-HCoV-OC43 Activity EC90), 0.03 to 0.08 µM; in the series with Omicron [10] (setting [19]), 0.6 to 0.7 µM.

In the series on SARS-CoV-2 [3], `CC(C)OC(=O)[C@H](C)N[P@](=O)(OC[C@H]1S[C@@H](n2ccc(N)nc2=O)[C@H](O)[C@@H]1O)Oc1ccccc1` [Compound 16, Isopropyl ((S)-(((2R,3S,4R,5R)-5-(4-amino-2-oxopyrimidin-1(2H)-yl)-3,4-dihydroxytetrahydrothiophen-2-yl)methoxy)(phenoxy)phosphoryl)-L-alaninate] gave an EC50 greater than 10 µM. Moreover, the CC50 in series [4], in series [5], in series [14] and in series [15] was greater than 100 µM each time.

In the series on SARS-CoV-2 [3], `CC(C)OC(=O)[C@H](C)N[P@](=O)(OC[C@H]1S[C@@H](n2ccc(=O)[nH]c2=O)[C@H](O)[C@@H]1O)Oc1ccccc1` [Compound 13, Isopropyl ((S)-(((2R,3S,4R,5R)-5-(2,4-dioxo-3,4-dihydropyrimidin-1(2H)-yl)-3,4-dihydroxytetrahydrothiophen-2-yl)methoxy)(phenoxy)phosphoryl)-L-alaninate] showed an EC50 greater than 10 µM. Besides, the CC50 in series [4], in series [5], in [14] and in series [15] was greater than 100 µM in each case.

Consider `C[C@@H]1C[C@@H]([C@H](O)CC2CC(=O)NC(=O)C2)C(=O)[C@@H](C)C1` [cyclohexamide, Cycloheximide, reference compound], for which the CC50 in the series “in vitro [7]” and in “in vitro [9]” was 10 µM each time.

Consider `O=c1nc(NO)ccn1[C@@H]1S[C@H](CO)C(O)C1O` (stereo in doubt) [Compound 17, 1-((2R,3S,4R,5R)-3,4-dihydroxy-5-(hydroxymethyl)-tetrahydrothiophen-2-yl)-4-(hydroxyamino) pyrimidin-2(1H)-one], for which the EC50 in the series with SARS-CoV-2 [3] and in the series with SARS-CoV-2 [11] (setting [17]) was less than 10 µM each time. The CC50 in series [4], in series [14] and in [15] was greater than 100 µM in each case.

Consider `Nc1ccn([C@@H]2S[C@H](CO)[C@@H](O)[C@H]2O)c(=O)n1` [Compound 9, 4-amino-1-((2R,3R,4S,5R)-3,4-dihydroxy-5-(hydroxymethyl)tetrahydrothiophen-2-yl)pyrimidin-2(1H)-one], for which the EC50 in the series with SARS-CoV-2 [3] was found to be 0.2 µM; in the series on SARS-CoV-2 [11] (setting [17]), 1.9 µM; in the series on SARS-CoV-2 [12] it was 4.9 µM. Besides, the 90% effect concentration (EC90) in the series with SARS-CoV-2 [3] was 4.5 µM; with SARS-CoV-2 [11] (setting [17]), 3.9 µM; with SARS-CoV-2 [12] (read-out: Anti-SARS-CoV-2 Activity (Caco2) EC90), greater than 10 µM. In addition, the CC50 in series [4] was greater than 100 µM; in series [5] it was 28 µM; in series [14], 71.8 µM; in [15], 93.1 µM.

For `O=c1nc(NO)ccn1[C@@H]1O[C@H](CO)[C@@H](O)[C@H]1O` [NHC, N4-hydroxycytidine], the CC50 is 2.6 µM in series [5] and 16.5 µM in series [14]. The EC50 in the series with Omicron [8] (setting [16]) is greater than 10 µM; in the series with Omicron [8] (Severe acute respiratory syndrome coronavirus 2, Caco-2, read-out: Anti-Omicron Activity (Caco-2) EC50, value in parentheses), 13.3 µM; with Omicron [10] (setting [18]), 0.4 µM. Moreover, the EC90 in the series with Omicron [10] (setting [19]) is 1.2 µM.
